Assay results as given in ChEMBL document CHEMBL3885881, “DrugMatrix”.

Organism: Rattus norvegicus
Experiment: DrugMatrix - Regimen: Daily Repeat
Type: toxicity, organism-based, Sprague-Dawley
Parameters: regimen Daily Repeat, gender Male, age 6-8 weeks
Details: in vivo, po, route oral GAVAGE, vehicle .5 % CMC; for ABSOLUTE BASOPHIL / ABSOLUTE EOSINOPHIL / ABSOLUTE LYMPHOCYTE / ABSOLUTE MONOCYTE / ABSOLUTE SEGMENTED NEUTROPHIL / BASOPHIL / EOSINOPHIL / ERYTHROCYTE COUNT / HEMATOCRIT / HEMOGLOBIN / LEUKOCYTE COUNT / LYMPHOCYTE / MEAN CORPUSCULAR HEMOGLOBIN / MEAN CORPUSCULAR HEMOGLOBIN CONCENTRATION / MEAN CORPUSCULAR VOLUME / MONOCYTE / NEUTROPHIL / NUCLEATED RED BLOOD CELLS / PLATELET COUNT: tissue Blood; for ALANINE AMINOTRANSFERASE / ALBUMIN / ALKALINE PHOSPHATASE / ASPARTATE AMINOTRANSFERASE / BLOOD UREA NITROGEN / CARBON DIOXIDE / CHLORIDE / CHOLESTEROL / CREATINE PHOSPHOKINASE / CREATININE / GLUCOSE / LACTATE DEHYDROGENASE / LIPASE / PHOSPHORUS / POTASSIUM / SODIUM / TOTAL BILIRUBIN / TOTAL PROTEIN / URIC ACID: tissue Plasma
[1] = 0 mg/kg, 72 h, dose level Control, time 3 day
[2] = 0 mg/kg, 120 h, dose level Control, time 5 day
[3] = 385.5 mg/kg, 72 h, dose level Low, time 3 day

## Cn1c(=O)c2c(ncn2CC(O)CO)n(C)c1=O (centres undefined) [DYPHYLLINE]
[1]
  ABSOLUTE BASOPHIL: 0 CELLS/uL
  ABSOLUTE EOSINOPHIL: 32.5 CELLS/uL
  ABSOLUTE LYMPHOCYTE: 13494.17 CELLS/uL
  ABSOLUTE MONOCYTE: 474 CELLS/uL
  ABSOLUTE SEGMENTED NEUTROPHIL: 1932.67 CELLS/uL
  BASOPHIL: 0%
  EOSINOPHIL: 0.17%
  ERYTHROCYTE COUNT: 5.45 x10E6/uL
  HEMATOCRIT: 34.32%
  HEMOGLOBIN: 13.82 G/DL
  LEUKOCYTE COUNT: 15.93 x10E3/uL
  LYMPHOCYTE: 84.83%
  MEAN CORPUSCULAR HEMOGLOBIN: 25.38 pg
  MEAN CORPUSCULAR HEMOGLOBIN CONCENTRATION: 40.27 G/DL
  MEAN CORPUSCULAR VOLUME: 63.05 fL
  MONOCYTE: 3%
  NEUTROPHIL: 12%
  NUCLEATED RED BLOOD CELLS: 0.67 /100WBC
  PLATELET COUNT: 1188.5 x10E3/uL
  ALANINE AMINOTRANSFERASE: 54.83 u/L
  ALBUMIN: 4.22 G/DL
  ALKALINE PHOSPHATASE: 427.67 u/L
  ASPARTATE AMINOTRANSFERASE: 86.5 u/L
  BLOOD UREA NITROGEN: 15.33 mg/dL
  CARBON DIOXIDE: 24.83 mmol/L
  CHLORIDE: 102.33 MEQ/L
  CHOLESTEROL: 71.67 mg/dL
  CREATINE PHOSPHOKINASE: 442.5 u/L
  CREATININE: 0.19 mg/dL
  GLUCOSE: 160.67 mg/dL
  LACTATE DEHYDROGENASE: 236.5 u/L
  LIPASE: 9 u/L
  PHOSPHORUS: 11.97 mg/dL
  POTASSIUM: 6.2 MEQ/L
  SODIUM: 142.85 MEQ/L
  TOTAL BILIRUBIN: 0.2 mg/dL
  TOTAL PROTEIN: 5.8 G/DL
  URIC ACID: 1.3 mg/dL
[2]
  ABSOLUTE BASOPHIL: 0 CELLS/uL
  ABSOLUTE EOSINOPHIL: 114.5 CELLS/uL
  ABSOLUTE LYMPHOCYTE: 14614 CELLS/uL
  ABSOLUTE MONOCYTE: 173 CELLS/uL
  ABSOLUTE SEGMENTED NEUTROPHIL: 1048.5 CELLS/uL
  BASOPHIL: 0%
  EOSINOPHIL: 0.67%
  ERYTHROCYTE COUNT: 5.66 x10E6/uL
  HEMATOCRIT: 35.52%
  HEMOGLOBIN: 14.27 G/DL
  LEUKOCYTE COUNT: 15.95 x10E3/uL
  LYMPHOCYTE: 91.33%
  MEAN CORPUSCULAR HEMOGLOBIN: 25.23 pg
  MEAN CORPUSCULAR HEMOGLOBIN CONCENTRATION: 40.2 G/DL
  MEAN CORPUSCULAR VOLUME: 62.7 fL
  MONOCYTE: 1.17%
  NEUTROPHIL: 6.83%
  NUCLEATED RED BLOOD CELLS: 0.33 /100WBC
  PLATELET COUNT: 1229 x10E3/uL
  ALANINE AMINOTRANSFERASE: 58.67 u/L
  ALBUMIN: 4.32 G/DL
  ALKALINE PHOSPHATASE: 382.5 u/L
  ASPARTATE AMINOTRANSFERASE: 81.67 u/L
  BLOOD UREA NITROGEN: 17.67 mg/dL
  CARBON DIOXIDE: 27.17 mmol/L
  CHLORIDE: 102.33 MEQ/L
  CHOLESTEROL: 63.67 mg/dL
  CREATINE PHOSPHOKINASE: 227.67 u/L
  CREATININE: 0.23 mg/dL
  GLUCOSE: 155.33 mg/dL
  LACTATE DEHYDROGENASE: 146.5 u/L
  LIPASE: 10.67 u/L
  PHOSPHORUS: 11.93 mg/dL
  POTASSIUM: 6.85 MEQ/L
  SODIUM: 143.95 MEQ/L
  TOTAL BILIRUBIN: 0.18 mg/dL
  TOTAL PROTEIN: 6.02 G/DL
  URIC ACID: 1.63 mg/dL
[3]
  ABSOLUTE BASOPHIL: 0 CELLS/uL
  ABSOLUTE EOSINOPHIL: 40.67 CELLS/uL
  ABSOLUTE LYMPHOCYTE: 10748 CELLS/uL
  ABSOLUTE MONOCYTE: 461.33 CELLS/uL
  ABSOLUTE SEGMENTED NEUTROPHIL: 1483.33 CELLS/uL
  BASOPHIL: 0%
  EOSINOPHIL: 0.33%
  ERYTHROCYTE COUNT: 5.3 x10E6/uL
  HEMATOCRIT: 33.37%
  HEMOGLOBIN: 13.27 G/DL
  LEUKOCYTE COUNT: 12.73 x10E3/uL
  LYMPHOCYTE: 86%
  MEAN CORPUSCULAR HEMOGLOBIN: 25.13 pg
  MEAN CORPUSCULAR HEMOGLOBIN CONCENTRATION: 39.8 G/DL
  MEAN CORPUSCULAR VOLUME: 63.07 fL
  MONOCYTE: 3%
  NEUTROPHIL: 10.67%
  NUCLEATED RED BLOOD CELLS: 0.33 /100WBC
  PLATELET COUNT: 1358 x10E3/uL
  ALANINE AMINOTRANSFERASE: 42.67 u/L
  ALBUMIN: 4.03 G/DL
  ALKALINE PHOSPHATASE: 400.67 u/L
  ASPARTATE AMINOTRANSFERASE: 72 u/L
  BLOOD UREA NITROGEN: 15.67 mg/dL
  CARBON DIOXIDE: 25.33 mmol/L
  CHLORIDE: 103 MEQ/L
  CHOLESTEROL: 72.33 mg/dL
  CREATINE PHOSPHOKINASE: 199.67 u/L
  CREATININE: 0.14 mg/dL
  GLUCOSE: 152 mg/dL
  LACTATE DEHYDROGENASE: 149.67 u/L
  LIPASE: 9.33 u/L
  PHOSPHORUS: 13 mg/dL
  POTASSIUM: 7.04 MEQ/L
  SODIUM: 144.5 MEQ/L
  TOTAL BILIRUBIN: 0.17 mg/dL
  TOTAL PROTEIN: 5.57 G/DL
  URIC ACID: 1.53 mg/dL
